Reference: US12331032B2, “Quinone reductase 2 inhibitor compounds and uses thereof” (DUKE UNIVERSITY, priority 2018, dated 2025)

How the values were obtained:
[1] = biological target: T1, quinone reductase 2 (QR2) (Homo sapiens, UniProt P16083); assay: QR2 inhibition, comparative IC50 data; assay type: biochemical; conditions: QR2 inhibitors
T1 sequence (P16083 1-231): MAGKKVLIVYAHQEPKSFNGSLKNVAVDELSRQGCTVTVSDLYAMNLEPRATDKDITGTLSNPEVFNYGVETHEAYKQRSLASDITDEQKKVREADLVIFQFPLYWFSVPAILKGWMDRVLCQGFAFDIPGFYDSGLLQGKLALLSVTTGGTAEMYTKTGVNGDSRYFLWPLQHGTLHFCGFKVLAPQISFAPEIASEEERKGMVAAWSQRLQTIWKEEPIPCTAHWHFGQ

[2] = tested on: mouse model of closed head injury (TBI); assay: Rotorod vestibulomotor function after closed head injury (TBI); assay type: in vivo; conditions: mice, i.p. at 4 hours following TBI, after 5 days
Method: The TBI model involves a single impact designed to avoid skull fracture. Injury is produced predominantly through acceleration/deceleration forces. For this model, therapeutic compounds were delivered i.p. at 4 hours following TBI, and then once weekly thereafter for the duration of the experiment, which terminated after 28 days following assessment of spatial learning and memory. […] Mice were tested on Rotorod for 5 consecutive days post TBI, then on day 7 and day 28.

[3] = tested on: mouse model of closed head injury (TBI); assay: Morris Water maze spatial learning and memory after TBI; assay type: in vivo; conditions: days 28-31 post-injury
Method: The TBI model involves a single impact designed to avoid skull fracture. Injury is produced predominantly through acceleration/deceleration forces. For this model, therapeutic compounds were delivered i.p. at 4 hours following TBI, and then once weekly thereafter for the duration of the experiment, which terminated after 28 days following assessment of spatial learning and memory. FIG. 5A-B summarize the results of spatial learning and memory assessments at 4 weeks following TBI, using the Morris Water maze to test the ability of mice to locate a submerged platform. The mice performed four trials/day for 4 consecutive days (inter-trial interval=30 min). The latency to locate the platform was recorded, and the 4 trials per day were averaged. Mice were tested on days 28-31 post-injury (n=11-12 mice per group). Standard control trials to confirm intact vision were also performed.

[4] = acidic lysomal pHs between 4 and 5.5; cited from earlier work
[5] = tested on: permanent MCA occlusion model; conditions: cited from earlier work

| Compound | IC50 [1] | improvement in Rotorod latency over CQ [2] | improvement in Rotorod latency over vehicle [2] | improvement in learning and memory over vehicle (Morris Water maze) [3] | fraction doubly protonated [4] | reduction of stroke volumes [5] |
| --- | --- | --- | --- | --- | --- | --- |
| COc1ccc2c(NCc3cccnc3)ccnc2c1 [QR2I-44, 7-methoxy-4-(pyridin-3-yl) methylaminoquinoline] | 7.51 µM | ~200% | ~300% | 30-35% |  |  |
| CCN(CC)CCCC(C)Nc1ccnc2cc(Cl)ccc12 (stereo not shown) [chloroquine] | 70.9 µM |  |  |  | ~100% | 60% |
